One may read the EC50 as the concentration at which the effect is half-maximal.

Our source for the EC50 values is ChEMBL document CHEMBL1287642, “Synthesis, antiviral activity and cytotoxicity evaluation of Schiff bases of some 2-phenyl quinazoline-4(3)H-ones” (Eur J Med Chem, 2010).

SMILES strings stand for the structures. Converted amounts (≈) assume the structure as drawn. Some results are limits rather than exact numbers.

This assay has as its system Vaccinia virus. As to the kind of experiment: Antiviral activity against Vaccinia virus infected in human HEL cells assessed as protection against virus-induced cytopathogenicity after 2 days. The conditions noted are these: Orthopoxvirus vaccinia, 48 h. The class given is functional, organism-based.
`O=c1c2ccccc2nc(-c2ccccc2)n1/N=C/c1ccccc1O`: the EC50 came to 0.8 µg/mL (≈ 2.34 µM).
As to `O=c1c2ccccc2nc(-c2ccccc2)n1/N=C/c1cccc([N+](=O)[O-])c1`, the EC50 was more than 20 µg/mL.
As to `COc1ccc(/C=N/n2c(-c3ccccc3)nc3ccccc3c2=O)cc1`, the EC50 was 9 µg/mL (≈ 25.3 µM).
For the compound `O=c1c2ccccc2nc(-c2ccccc2)n1/N=C/c1ccccc1`, the EC50 was 9 µg/mL (≈ 27.7 µM).
As for `O=c1c2ccccc2nc(-c2ccccc2)n1/N=C/c1ccc(O)cc1`, the EC50 stood at 12 µg/mL (≈ 35.2 µM).
In the case of `C/C(=N\n1c(-c2ccccc2)nc2ccccc2c1=O)c1ccccc1`, the EC50 was more than 100 µg/mL.
With `C/C(=N\n1c(-c2ccccc2)nc2ccccc2c1=O)c1ccc(O)cc1`, the EC50 was more than 100 µg/mL.
To `O=c1c2ccccc2nc(-c2ccccc2)n1/N=C/c1ccc(Cl)cc1` belongs 20 µg/mL (≈ 55.6 µM); to `COc1ccc(/C=N/n2c(-c3ccccc3)nc3ccccc3c2=O)cc1O`, 20 µg/mL (≈ 53.9 µM).
For `COc1ccccc1/C=N/n1c(-c2ccccc2)nc2ccccc2c1=O`, the EC50 is more than 20 µg/mL.
For `O=c1[nH]c(=O)n([C@H]2C[C@H](O)[C@@H](CO)O2)cc1/C=C/Br` [BRIVUDINE], the EC50 was found to be 4 µg/mL (≈ 12 µM).
To `Nc1ccn(C[C@@H](CO)OCP(=O)(O)O)c(=O)n1.O.O` [CIDOFOVIR] belongs 8 µg/mL; to `Nc1nc2c(ncn2COC(CO)CO)c(=O)[nH]1` [GANCICLOVIR], more than 100 µg/mL.
Turning to `NC(=O)c1ncn([C@@H]2O[C@H](CO)[C@@H](O)[C@H]2O)n1` [RIBAVIRIN], the 50% effective concentration (EC50) is more than 250 µg/mL.
